Measurements reported in US10251931B2, “Cyclic peptides and methods using same” (priority 2014, dated 2019).
Entries after “also recorded” stand apart in the source; their conditions may differ. Positions of bridges follow the written chain, without caps; N, C: chain ends. Non-standard residues stand in square brackets, D forms with d. Residues, ends and D or L forms follow the SMILES beside them. Pro(cis-4-Trz(4-CH2CH2Ph)) = O=C(O)[C@@H]1C[C@H](n2cc(CCc3ccccc3)nn2)CN1

Legend:
[1] = biological target: S375H mutant of gp120 (Human immunodeficiency virus type 1 group M subtype B, UniProt P35961, S370H); experiment: SPR competition with gp120 mutant S375H; type: binding, HIV-1
[2] = biological target: T1, HIV-1 gp120 (Human immunodeficiency virus type 1 group M subtype B, UniProt P35961); type: binding; settings: for Dual receptor site (CD4 and 17b) inhibition of gp120, in words: SPR competition
T1 construct: Expression and Purification of Wild-Type gp120YU-2; made in house; host or cells: HEK 293F
Experimental: SPR competition binding assays were used to assess the structural elements required for cyclic hexapeptide binding to gp120. […] In an attempt to restore the lost contact, the length of the two linkers was changed (Linker 1 and Linker 2 in FIG. 12).
SPR experiments were performed on a Biacore 3000 optical biosensor (GE Healthcare). All experiments were carried out at 25° C. using standard PBS buffer pH=7.4 with 0.005% surfactant Tween. A CM5 sensor chip was derivatized by standard 1-ethyl-3-(3-dimethylaminopropyl) carbodiimide (EDC)/N-hydroxysuccinimide (NHS) chemistry, and coupling was done through ligand amine groups. Antibody 2B6R (α-human IL5R) was immobilized for negative control surfaces. For competition experiments, soluble four domain CD4 and 17b antibody were immobilized on the surface through standard EDC/NHS chemistry. For kinetic analyses, typically 2000-3000 RUs of protein reagents were immobilized on SPR chips, and analytes were passed over the surface at 50-100 μL/min. Surface regeneration was achieved by a 5 μL injection of 10 mM HCl solution at 100 μL/min. […] Regeneration of the surface was achieved by a single 10 second pulse of 1.3 M NaCl/35 mM NaOH and single 5-second pulse of 10 mM glycine, pH 1.5, for sCD4 and mAb 17b, respectively. All analyses were performed in triplicate.
The inhibition curve was converted into a calibration curve by the use of a fitting function. The fitting was done using the 4-parameter Equation (1) from BIAevaluation software,
The cyclic peptides of the invention were tested against HIV-1 gp120 by SPR competition assays as described elsewhere herein. A mixture of the cyclic peptide/gp120 solutions was passed over SPR chip immobilized with CD4 and 17b separately. The competition assay evaluated the ability of each peptide to inhibit the binding between gp120 and both soluble CD4 and 17b antibody, a surrogate for co-receptor.

[3] = biological target: S375W mutant of gp120 (Human immunodeficiency virus type 1 group M subtype B, UniProt P35961, S370W); experiment: SPR competition with gp120 mutant S375W; type: binding, HIV-1
[4] = biological target: Chymotrypsin (bovine pancreas) (Bos taurus, UniProt P00766); experiment: In vitro proteolytic stability, chymotrypsin
[5] = system: HIV-1 Bal.01 pseudovirus; experiment: Inhibition of HIV-1 infection against Bal.01 (HOS.T4.R5 cells, luciferase); type: cell-based
[6] = system: HIV-1 JR-FL pseudovirus; experiment: Inhibition of HIV-1 infection against JR-FL (HOS.T4.R5 cells, luciferase); type: cell-based
[7] = biological target: T2, Trypsin (from bovine pancreas) (Bos taurus, UniProt P00760); experiment: In vitro proteolytic stability, trypsin; settings: 5 h incubation, 37° C.
T2 sequence (P00760 24-246): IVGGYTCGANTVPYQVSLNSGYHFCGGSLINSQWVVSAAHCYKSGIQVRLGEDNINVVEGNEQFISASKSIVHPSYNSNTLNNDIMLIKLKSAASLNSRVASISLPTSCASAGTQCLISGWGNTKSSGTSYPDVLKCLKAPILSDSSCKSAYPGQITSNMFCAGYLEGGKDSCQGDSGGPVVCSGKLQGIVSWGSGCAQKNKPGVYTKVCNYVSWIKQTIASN

[8] = system: viruses pseudotyped with VSV-G; settings: cited from earlier work
[9] = system: tissue explants model; settings: concentrations up to 100 μM; cited from earlier work
[10] = biological target: monomeric gp120 (Human immunodeficiency virus type 1 group M subtype B, UniProt P35961); settings: read-out: KD, binding to monomeric gp120; cited from earlier work
[11] = system: HIV-1 subtype A, B and C isolates; settings: read-out: IC50 range, neutralization of viral infection; cited from earlier work

CC[C@H](C)[C@H](N)C(=O)N[C@H]1CCC(=O)NCCCC[C@@H](C(N)=O)NC(=O)[C@H](Cc2c[nH]c3ccccc23)NC(=O)[C@@H]2C[C@H](n3cc(CCc4ccccc4)nn3)CN2C(=O)[C@H]([C@@H](C)CC)NC(=O)[C@H](CC(N)=O)NC1=O [AAR024, (3S,6S,15S,18S,21S,25S,26aS)-3-((1H-indol-3-yl)methyl)-18-(2-amino-2-oxoethyl)-15-((2S,3S)-2-amino-3-methylpentanamido)-21-((S)-sec-butyl)-1,4,12,16,19,22-hexaoxo-25-(4-phenethyl-1H-1,2,3-triazol-1-yl)hexacosahydropyrrolo[2,1-f][1,4,7,10,13,19]hexaazacyclotetracosine-6-carboxamide] (H-IENI[Pro(cis-4-Trz(4-CH2CH2Ph))]WK-NH2; lactam 2-7)
Activity against S375H mutant of gp120 [1]: inactive
fold more active than the linear analogue [2]: > 40 fold
Dual receptor site (CD4 and 17b) inhibition of gp120, in words [2]: retained the dual receptor site inhibitory signature of linear PTs; also recorded: dual inhibitors
Activity against S375W mutant of gp120 [3]: inactive

CC[C@H](C)[C@@H]1NC(=O)[C@H](CC(N)=O)NC(=O)[C@@H](N)CC(=O)NCCCC[C@@H](C(N)=O)NC(=O)[C@H](Cc2c[nH]c3ccccc23)NC(=O)[C@@H]2C[C@H](n3cc(CCc4ccccc4)nn3)CN2C1=O [AAR029, (3S,6S,14S,17S,20S,24S,25aS)-3-((1H-indol-3-yl)methyl)-14-amino-17-(2-amino-2-oxoethyl)-20-((S)-sec-butyl)-1,4,12,15,18,21-hexaoxo-24-(4-phenethyl-1H-1,2,3-triazol-1-yl)tetracosahydro-1H-pyrrolo[2,1-f][1,4,7,10,13,18]hexaazacyclotricosine-6-carboxamide] (H-DNI[Pro(cis-4-Trz(4-CH2CH2Ph))]WK-NH2; lactam 1-6)
State after chymotrypsin treatment, in words ([4]; 30 min incubation, 37° C.): almost unchanged
Resistance to chymotrypsin, in words ([4]; 5 h incubation, 37° C.): completely resistant
Intactness after chymotrypsin digestion, in words ([4]; 40 h incubation, HPLC and ESI-MS): remained intact
Time the peptide remained stable ([4]; in the presence of trypsin and chymotrypsin, 37° C., pH 8.2): > 40 h
Infection inhibition against Bal.01, in words [5]: inhibiting activity
Infection inhibition against JR-FL, in words [6]: inhibiting activity
fold enhanced activity vs AAR029b [2]: ~2 fold
fold more active than the linear analogue [2]: > 200 fold
Dual receptor site (CD4 and 17b) inhibition of gp120, in words [2]: dual inhibitors
Resistance to trypsin, in words [7]: completely resistant

(S)-4-((S)-2-((S)-2-((2S,4S)-1-(L-arginyl-L-isoleucyl-L-asparaginyl-L-asparaginyl-L-alloisoleucyl)-4-(4-ferrocenyl-1H-1,2,3-triazol-1-yl)pyrrolidine-2-carboxamido)-3-(1H-indol-3-yl)propanamido)-3-hydroxypropanamido)-5-(((S)-1-(((S)-1-(((S)-1-amino-4-(methylthio)-1-oxobutan-2-yl)amino)-4-(methylthio)-1-oxobutan-2-yl)amino)-1-oxopropan-2-yl)amino)-5-oxopentanoic acid [HNG156]
Neutralization of VSV-G pseudotyped viruses, in words [8]: not
Toxicity in tissue explants model [9]: no detectable toxicity
Kd [10]: 0.007 µM
IC50 [11]: 0.08 to 62.5 µM
